One block for each molecule: values may come before it.
Legend:
G0S2 = assay: Inhibition of the expression of G0S2 (stated, test not specified); format: cell-based
Source text: (§1) Mouse hepatocytes were homogenized to extract proteins from the cytoplasm and nucleus. […] The chemical formulae of Compounds #142 and #151 are shown in General Formulae (13) and (14), respectively.

[1] = test system: G0S2 promoter (−2030→+10); assay: G0S2 promoter (−2030→+10) luciferase assay in Hepa1-6 cells; format: cell-based, mouse; details: Hepa1-6 reporter cells, 10 μM, 24 hours
Procedure: To get closer to the environment in the liver, a cell stably expressing an expression cassette in which a luciferase gene was ligated to the downstream side of the G0S2 promoter (−2030→+10) was constructed in the Hepa1-6 cell, which is a mouse hepatoma-derived cell. Using this cell, an effect of the candidate compounds on the luciferase activity was evaluated in the same manner as in the primary screening described above.

Bmal1 promoter = Bmal1 promoter luciferase assay in MEF cell line; format: cell-based; details: MEF reporter cell line, 10 μM, 24 hours
Procedure: Therefore, in order to exclude compounds having an effect on clock genes in normal cells, studies were conducted using the MEF cell line stably expressing an expression cassette in which a luciferase gene was ligated to the downstream side of the Bmal1 promoter.

[2] = test system: nuclear receptor RARα mRNA; assay: RARα mRNA expression in Hepa1-6 cells (qRT-PCR); format: cell-based, mouse; details: 10 μM, 24 hours
G0S2 promoter = G0S2 promoter luciferase activity in O-4000E cell line, IC50; format: cell-based, mouse; details: Mus musculus, 24 h, O-4000E cells, 24 hours after exposure
Procedure: The present inventors have searched for a G0S2 gene transcription inhibitor. In searching, the present inventors have received a compound library consisting of 9600 compounds (Core library) from the Open Innovation Center for Drug Discovery, The University of Tokyo. For this compound library, primary screening was carried out by evaluating an effect of compounds on a luciferase activity using a 384-well plate. The drug efficacy evaluation was studied three times for each compound (final concentration of 10 μM) using a cell line stably expressing an expression cassette in which a luciferase gene was ligated to the downstream side of the G0S2 promoter (−2030→−1378), and compounds which reduced a luciferase activity to less than ¼ were extracted from all studies. As a result, 175 compounds were hit.
For the evaluation of drug efficacy of Compound Nos. 1 and 2, which are hit compounds, an IC50 was calculated. The O-4000E cell line was seeded, and Compound Nos. 1 and 2 were serially diluted in […] so as to have final concentrations of 0.15625 μM to 10 μM, followed by exposure of the cells to the compounds. The luciferase activity was measured 24 hours after the exposure, and the curve fitting was carried out to calculate an IC50 of the compounds.
Detailed drug efficacy evaluation at low concentrations was carried out for the compound of Example 2 (NS-3-011) whose drug efficacy at a concentration of less than 10 μM was observed based on the studies so far and which is expected to have an effect equal to or more than that of Compound No. 2. First, using O-4000E cells, IC50 of Compound No. 2 and the compound of Example 2 (NS-3-011) on the G0S2 promoter activity was calculated.

[3] = test system: DEN-induced hepatitis/hepatoma mouse model; assay: DEN-induced hepatitis/hepatoma mouse model: hepatoma/tumor formation in liver after 14 weeks; format: in vivo; details: 15 mg/kg in drinking water
Procedure: Mice of a diethylnitrosamine (DEN)-induced hepatitis/hepatoma mouse model were divided into two groups, one receiving siRNA against G0S2 (G0S2 siRNA-administered group) and the other receiving negative control siRNA (control siRNA-administered group). Administration of siRNA to mice was carried out by tail vein administration of 1.6 nmol/mouse using a nucleic acid transfection reagent (trade name “LipoTrust™ EX Oligo <in vivo>, Hokkaido System Science Co., Ltd.). As the siRNA against G0S2, commercially available siRNA (Life Technologies, Inc., trade name “Stealth siRNA”, catalog number “#1320001”, the base sequence of the antisense strand is set forth in SEQ ID NO: 3) was used. As the control siRNA, a commercially available siRNA (Life Technologies, Inc., the base sequence of the antisense strand is set forth in SEQ ID NO: 4) was used.
Subsequently, mice of the same G0S2 siRNA-administered group and control siRNA-administered group as above were prepared. DEN was added to drinking water at a concentration of 80 mg/L from one day after the administration of siRNA to mice, and mice were sacrificed after 14 weeks of breeding and then subjected to analysis. As a result, the onset of hepatoma was inhibited in mice of the G0S2 siRNA-administered group.
(§2) Diethylnitrosamine (DEN) dissolved in water at a concentration of 80 mg/L as drinking water was administered in drinking water to ICR mice, thereby inducing chronic inflammation and hepatoma in the liver. In addition, a group in which 15 mg/kg of the compound of Example 10 (NS-3-086) was administered in drinking water from immediately after the start of administration of DEN in drinking water was prepared. As a control group, a group given tap water as drinking water was used.
Subsequently, mice of each group were sacrificed 14 weeks after the start of administration of DEN in drinking water, and the liver was excised and analyzed. FIGS. 28A, 28B and 28C are photographs of the liver at 14 weeks after the start of administration of DEN in drinking water.

[4] = test system: alanine aminotransferase (ALT) activity in serum; assay: Serum ALT activity in DEN-induced hepatitis/hepatoma mouse model; format: in vivo; details: ICR mice, DEN 80 mg/L, 15 mg/kg in drinking water, 8 weeks and 12 weeks
Procedure: as §2, with “inflammation” for “inflammation and hepatoma”
Subsequently, 8 weeks and 12 weeks after the start of administration of DEN in drinking water, blood was collected from the tails of mice of each group, and the alanine aminotransferase (ALT) activity in serum was measured using a commercially available kit (“Transaminase CII-Test Wako”, manufactured by Wako Pure Chemical Industries, Ltd.).

[5] = target: T1, Hsd17b4 (Peroxisomal multifunctional enzyme type 2) (Mus musculus, UniProt P51660); assay: Pull-down assay with avidin beads and LC/MS/MS identification of target protein; format: binding; details: proteins from mouse hepatocytes, avidin beads
T1 construct: Mouse hepatocytes were homogenized to extract proteins from the cytoplasm and nucleus; endogenous in cells; host or cells: mouse hepatocytes (homogenate, cytoplasmic and nuclear proteins)
T1 sequence (P51660 1-735): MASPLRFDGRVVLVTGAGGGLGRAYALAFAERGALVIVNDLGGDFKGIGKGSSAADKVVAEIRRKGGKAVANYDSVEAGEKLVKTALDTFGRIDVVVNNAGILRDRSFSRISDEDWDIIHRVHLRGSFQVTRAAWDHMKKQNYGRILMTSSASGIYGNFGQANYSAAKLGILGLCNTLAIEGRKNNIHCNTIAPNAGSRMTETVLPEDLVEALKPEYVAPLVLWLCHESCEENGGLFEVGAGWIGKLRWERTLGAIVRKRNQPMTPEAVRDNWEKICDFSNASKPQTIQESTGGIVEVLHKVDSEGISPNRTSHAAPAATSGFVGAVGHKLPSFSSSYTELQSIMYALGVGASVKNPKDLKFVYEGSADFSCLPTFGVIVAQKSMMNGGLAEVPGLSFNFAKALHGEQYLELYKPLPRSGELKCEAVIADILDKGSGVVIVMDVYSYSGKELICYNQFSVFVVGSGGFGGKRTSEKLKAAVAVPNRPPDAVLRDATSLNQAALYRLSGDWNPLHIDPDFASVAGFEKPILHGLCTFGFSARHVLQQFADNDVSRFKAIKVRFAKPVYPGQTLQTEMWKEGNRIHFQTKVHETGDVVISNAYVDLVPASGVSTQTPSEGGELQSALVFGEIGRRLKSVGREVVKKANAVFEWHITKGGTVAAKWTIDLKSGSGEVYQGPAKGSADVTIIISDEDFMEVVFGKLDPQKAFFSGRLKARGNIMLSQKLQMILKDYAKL
Procedure: as §1
Thereafter, a pull-down assay was carried out with avidin-labeled magnetic beads (hereinafter, sometimes referred to as “avidin beads”), and the compounds and proteins bound to the avidin beads were subjected to acrylamide gel electrophoresis. The acrylamide gel after subjecting to electrophoresis was negatively stained, a band of a protein specifically bound to Compound #142 was excised, and the protein was identified by an LC/MS/MS analysis.
FIG. 17 is a photograph showing the results of acrylamide gel electrophoresis.

Hsd17b4 gene = assay: Hsd17b4 knockdown in Hepa1-6 cells: Hsd17b4 gene expression (real-time PCR); format: cell-based, mouse; details: 48 hours after transfection, vs control siRNA
Source text: Hepα1-6 cells, which are mouse hepatoma-derived cells, were divided into two groups, in which one group was transfected with siRNA against Hsd17b4 and the other group was transfected with control siRNA. The base sequence of the sense strand of siRNA against Hsd17b4 is set forth in SEQ ID NO: 7, and the base sequence of the antisense strand thereof is set forth in SEQ ID NO: 8. In addition, commercially available siRNA (Life Technologies, Inc., the base sequence of the antisense strand is set forth in SEQ ID NO: 4) was used as the control siRNA.
Subsequently, each cell was recovered after 48 hours and total RNA was extracted. Subsequently, the expression level of the Hsd17b4 gene was quantified by real-time PCR.

G0S2 mRNA [6] = assay: G0S2 mRNA expression in Hepa1-6 cells (qRT-PCR); format: cell-based, mouse; details: for G0S2 mRNA expression level: 48 hours, vs DMSO; for expression level of G0S2 mRNA: 10 μM, 24 hours
Procedure: The effect of the compound on the expression level of mRNA of the G0S2 gene was evaluated for the three compounds extracted so far. 24 hours after seeding with Hepa1-6 cells, the cells were exposed to hit compounds at 10 μM and sampling and total RNA extraction were carried out 24 hours later. Subsequently, changes in the expression level of mRNA of the G0S2 gene were measured by a qRT-PCR method.
Hepa1-6 cells were exposed to 10 μM of each of seven derivatives of Compound No. 2 (Examples 2 and 4 to 9) and an effect of the derivative compounds on the expression level of G0S2 mRNA after 24 hours was evaluated.
Therefore, Hepa1-6 cells were exposed to Compound No. 2 and the compound of Example 2 (NS-3-011) in the range of 0.5 to 5 μM and an effect of the compounds on the expression level of endogenous G0S2 mRNA after 48 hours was evaluated.
Subsequently, Hepa1-6 cells were transfected with siRNA against Hsd17b4 or control siRNA in the presence (10 μM) or absence (indicated as “DMSO” in FIG. 22B) of Compound No. 2. Subsequently, each cell was recovered after 48 hours and total RNA was extracted. Subsequently, the expression level of the G0S2 gene was quantified by real-time PCR.

G0S2 mRNA [7] = assay: G0S2 mRNA expression in human HepG2 cells; format: cell-based; details: 10 μM, 24 hours
[8] = ICR mice, DEN 80 mg/L, 14 weeks
[9] = liver, 14 weeks after start of DEN in drinking water

Molecule: N=C(NCCCCCO)NCc1ccccc1 [Comparative Example 1]
- inhibition of the expression of G0S2 (G0S2): not inhibiting the expression of G0S2

- IC50 (G0S2 promoter): 5 µM
Molecule: CC(=O)Nc1cccc(NC(=O)CSc2nc(=O)n(N3CCN(C)CC3)c3c2CCC3)c1 [Compound No. 1]
- G0S2 promoter (−2030→+10) activity (relative value) [1]: less than ½
- Bmal1 promoter activity (Bmal1 promoter): no significant change
- expression level of nuclear receptor RARα mRNA [2]: no change

Molecule: CCCCCCCCCCCCNC(=N)NCc1cc(C(F)(F)F)cc(C(F)(F)F)c1 [Example 10]
- hepatic hardening [3, 8]: inhibited
- tumor formation in the liver [3, 8]: inhibited
- mice (n) with large number of tumors [3, 9]: 0 n
- mice (n) with number of tumors 0 [3, 9]: 3 n
- mice (n) with number of tumors 1 [3, 9]: 3 n
- increase in serum ALT activity by DEN drinking water [4]: inhibited

- protein specifically bound in pull-down assay (band of about 75 kDa) [5]: Hsd17b4
Molecule: CCCCCCCCCCCCNC(=N)NCc1ccc(OCc2cn(CCOCCOCCOCCNC(=O)CCCC[C@@H]3SC[C@@H]4NC(=O)N[C@@H]43)nn2)cc1 [#142]

Molecule: siRNA against Hsd17b4: siRNA against Hsd17b4, sense strand SEQ ID NO: 7, antisense strand SEQ ID NO: 8 (sense GAGCAUUAGUCAUUGUGAACGACUU; antisense AAGUCGUUCACAAUGACUAAUGCUC; listed as RNA, chemistry not given here)
- expression of Hsd17b4 (Hsd17b4 gene): inhibited

Molecule: O=C(Nc1cccc(S(=O)(=O)c2cccc(NC(=O)C3CC3)c2)c1)C1CC1 [Compound No. 3]
- G0S2 promoter (−2030→+10) activity (relative value) [1]: less than ½
- Bmal1 promoter activity (Bmal1 promoter): no significant change
- expression level of nuclear receptor RARα mRNA [2]: significant decrease

Molecule: CCCCCCNC(=N)NCCc1ccccc1 [Example 6]
- G0S2 mRNA expression level (G0S2 mRNA [6]; 2.5 μM): significant decrease
- G0S2 mRNA expression level (G0S2 mRNA [6]; 5 μM): significant decrease
- expression level of G0S2 mRNA (G0S2 mRNA [6]): up to the same extent as that of Compound 2
- expression level of G0S2 mRNA (G0S2 mRNA [7]): significant decrease

Molecule: CCCCCCN/C(=N\C(=O)OC(C)(C)C)NCc1ccccc1 [Example 4]
- expression level of G0S2 mRNA (G0S2 mRNA [6]): up to the same extent as that of Compound 2

Reference: US20190359560A1, “ANTI-INFLAMMATORY DRUG AND USES THEREOF” (KYUSHU UNIVERSITY, NATIONAL UNIVERSITY CORPORATION, priority 2015, published 2019)
